The source of these data is patent US20090209578A1, “CHEMICAL COMPOUNDS” (PFIZER INC, priority 2005, published 2009).

HIV-1 fusion (gp160 induced cell-cell fusion; HeLa P4 cell line expressing CCR5 and CD4 / CHO-Tat10 cell line), sequence (P51681 whole entry, the tested form may be a part): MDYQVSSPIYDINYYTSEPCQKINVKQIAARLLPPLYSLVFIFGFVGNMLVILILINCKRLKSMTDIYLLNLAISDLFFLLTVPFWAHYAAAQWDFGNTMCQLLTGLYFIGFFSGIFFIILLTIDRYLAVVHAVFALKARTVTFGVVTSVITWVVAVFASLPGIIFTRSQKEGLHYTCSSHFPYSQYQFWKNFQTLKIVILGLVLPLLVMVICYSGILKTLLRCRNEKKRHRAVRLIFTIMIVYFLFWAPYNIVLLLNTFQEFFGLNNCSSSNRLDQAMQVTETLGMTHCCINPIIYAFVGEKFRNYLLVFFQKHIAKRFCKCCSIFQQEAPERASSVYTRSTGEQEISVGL

The first assay concerns the target HIV-1 fusion (gp160 induced cell-cell fusion; HeLa P4 cell line expressing CCR5 and CD4 / CHO-Tat10 cell line) (Homo sapiens, UniProt P51681). Put plainly: gp160 induced cell-cell fusion assay. The format is cell-based. The following applies: HeLa P4 / CHO-Tat10 cells, read-out: IC50. The text has this:
Biol., 60, 147-52 (1996); and/or by using the intracellular calcium mobilisation assays as described by the same authors, and/or inhibiting cell fusion following procedures disclosed in Bradley et al., J Biomol Screen 9, 516-24 (2004).
The gp160 induced cell-cell fusion assay uses a HeLa P4 cell line and a CHO-Tat10 cell line.
The HeLa P4 cell line expresses CCR5 and CD4 and has been transfected with HIV-1 LTR-β-Galactosidase. The media for this cell line is Dulbecco modified eagle's medium (D-MEM) (without L-glutamine) containing 10% foetal calf serum (FCS), 2 mM L-glutamine, penicillin/streptomycin (Pen/Strep; 100 U/mL penicillin+[…] streptomycin), and 1 μg/ml puromycin.
The CHO cell line is a Tat (transcriptional trans activator)-expressing clone from a CHO JRR17.1 cell line that has been transfected with pTat puro plasmid. The media for this cell line is rich medium for mammalian cell culture originally developed at Roswell Park Memorial Institute RPMI1640 (without L-glutamine) containing 10% FCS, 2 mM L-glutamine, 0.5 mg/ml Hygromycin B and 12 µg/ml puromycin. The CHO JRR17.1 line expresses gp160 (JRFL) and is a clone that has been selected for its ability to fuse with a CCR5/CD4 expressing cell line.
Upon cell fusion, Tat present in the CHO cell is able to transactivate the HIV-1 long terminal repeat (LTR) present in the HeLa cell leading to the expression of the β-Galactosidase enzyme. This expression is then measured using a Fluor Ace™ β-Galactosidase reporter assay kit (Bio-Rad cat no. 170-3150). This kit is a quantitative fluorescent assay that determines the level of expression of β-galactosidase using 4-methylumbelliferyl-galactopyranoside (MUG) as substrate. β-Galactosidase hydrolyses the fluorogenic substrate resulting in release of the fluorescent molecule 4-methylumbelliferone (4MU). Fluorescence of 4-methylumbelliferone is then measured on a fluorometer using an excitation wavelength of 360 nm and emission wavelength of 460 nm.
Compounds that inhibit fusion will give rise to a reduced signal and, following solubilisation in an appropriate solvent and dilution in culture medium, a dose-response curve for each compound can be used to calculate IC50 values.
On to `Cc1nc2c(n1C1CCN(C(C)C[C@H](NC(=O)C3CC(F)(F)C3)c3ccccc3)CC1)CN(C(=O)C(C)C)CC2` (stereo partly drawn) [Example 25, 3,3-Difluoro-N-{(1S)-3-[4-(5-isobutyryl-2-methyl-4,5,6,7-tetrahydro-3H-imidazo[4,5-c]pyridin-3-yl)piperidin-1-yl]-1-phenylbutyl}cyclobutanecarboxamide], for which the half-maximal inhibitory concentration (IC50) was 0.4 nM.
On the same count and under the same terms, for `Cc1nc2c(n1C1CCN(C(C)C[C@H](NC(=O)C3CCC3(F)F)c3ccccc3)CC1)CN(C(=O)C(C)C)CC2` (stereo partly shown) [Example 26] the value was 38.5 nM; for `Cc1nc2c(n1C1CCN(C(C)C[C@H](NC(=O)C3(C)CC3)c3ccccc3)CC1)CN(C(=O)C(C)C)CC2` (stereo partly shown) [Example 27], 115 nM; for `CC(=O)N1CCc2nc(C)n(C3CCN(C(C)C[C@H](NC(=O)C4(C)CC4)c4cccc(F)c4)CC3)c2C1` (stereo partly shown) [Example 48], 0.8 nM.
Consider `CC(=O)N1CCc2nc(C)n(C3CCN(C(C)C[C@H](NC(=O)C4CCC4(F)F)c4cccc(F)c4)CC3)c2C1` (stereo partly shown) [Example 49], for which the IC50 came to 0.4 nM.
Same read-out and setting: the figure for `CC(=O)N1CCc2nc(C)n(C3CCN(C(C)C[C@H](NC(=O)C4CCOCC4)c4cccc(F)c4)CC3)c2C1` (stereo partly shown) [Example 52] is 1 nM.
Same read-out and setting: for `CC(=O)N1CCc2nc(C)n(C3CCN(C(C)C[C@H](NC(=O)C4CCC4(F)F)c4ccccc4)CC3)c2C1` (stereo partly shown) [Example 53] the value was 0.5 nM; for `CC(=O)N1CCc2nc(C)n(C3CCN(C(C)C[C@H](NC(=O)C4CCC(F)(F)CC4)c4ccccc4)CC3)c2C1` (stereo partly shown) [Example 54], 0.4 nM; for `CC(=O)N1CCc2nc(C)n(C3CCN(C(C)C[C@H](NC(=O)C4(C)CC4)c4ccccc4)CC3)c2C1` (stereo partly shown) [Example 55], 0.3 nM.
The same measure, in the same setting: the figure for `CC(=O)N1CCc2nc(C)n(C3CCN(C(C)C[C@H](NC(=O)C4CCC4)c4cccc(F)c4)CC3)c2C1` (stereo partly shown) [Example 57] is 0.2 nM; for `COC(=O)N[C@@H](CC(C)N1CCC(n2c(C)nc3c2CN(C(C)=O)CC3)CC1)c1cccc(F)c1` (stereo partly shown) [Example 59] it is 13 nM; for `CC(=O)N1CCc2nc(C)n(C3CCN(C(C)C[C@H](NC(=O)C4CC4)c4cccc(F)c4)CC3)c2C1` (stereo partly shown) [Example 60] it is 0.6 nM.
For `CC(=O)N1CCc2nc(C)n(C3CCN(C(C)C[C@H](NC(=O)OC(C)C)c4cccc(F)c4)CC3)c2C1` (stereo partly shown) [Example 61], the IC50 amounted to 1.6 nM.
Still for that read-out and setting: for `CC(=O)N1CCc2nc(C)n(C3CCN(C(C)C[C@H](NC(=O)OC(C)C)c4ccccc4)CC3)c2C1` (stereo partly shown) [Example 63] the value was 1.8 nM.
Same read-out and setting: for `CC(=O)N[C@@H](CC(C)N1CCC(n2c(C)nc3c2CN(C(=O)C(C)C)CC3)CC1)c1cccc(F)c1` (stereo partly shown) [Example 64] the value was 2 nM; for `CCC(=O)N[C@@H](CC(C)N1CCC(n2c(C)nc3c2CN(C(=O)C(C)C)CC3)CC1)c1cccc(F)c1` (stereo partly shown) [Example 65], 0.6 nM.
Same read-out and setting: for `CCOC(=O)N1CCc2nc(C)n(C3CCN(C(C)C[C@H](NC(C)=O)c4cccc(F)c4)CC3)c2C1` (stereo partly drawn) [Example 66, Ethyl 3-{1-[(3S)-3-(acetylamino)-3-(3-fluorophenyl)-1-methylpropyl]piperidin-4-yl}-2-methyl-3,4,6,7-tetrahydro-5H-imidazo[4,5-c]pyridine-5-carboxylate] the value was 3.5 nM.
For `CCC(=O)N[C@@H](CC(C)N1CCC(n2c(C)nc3c2CN(C(=O)OC)CC3)CC1)c1cccc(F)c1` (stereo partly shown) [Example 67], the 50% inhibitory concentration (IC50) amounted to 0.2 nM.
On the same count and under the same terms, for `CCCC(=O)N[C@@H](CC(C)N1CCC(n2c(C)nc3c2CN(C(=O)OC)CC3)CC1)c1cccc(F)c1` (stereo partly drawn) [Example 69, Methyl 3-{1-[(3S)-3-(butyrylamino)-3-(3-fluorophenyl)-1-methylpropyl]piperidin-4-yl}-2-methyl-3,4,6,7-tetrahydro-5H-imidazo[4,5-c]pyridine-5-carboxylate] the value was 0.2 nM; for `COC(=O)N1CCc2c(nc(C)n2C2CCN(C(C)C[C@H](NC(=O)C3CC(F)(F)C3)c3cccc(F)c3)CC2)C1` (stereo partly drawn) [Example 80, Methyl 1-{1-[(3S)-3-{[(3,3-difluorocyclobutyl)carbonyl]amino}-3-(3-fluorophenyl)-1-methylpropyl]piperidin-4-yl}-2-methyl-1,4,6,7-tetrahydro-5H-imidazo[4,5-c]pyridine-5-carboxylate], 0.2 nM; for `CCC(=O)N[C@@H](CC(C)N1CCC(n2c(C)nc3c2CCN(C(=O)OC)C3)CC1)c1cccc(F)c1` (stereo partly shown) [Example 91], 102 nM.
Same read-out and setting: the figure for `CC(=O)N1CCc2c(nc(C)n2C2CCN(C(C)C[C@H](NC(=O)C3CC3)c3cccc(F)c3)CC2)C1` (stereo partly shown) [Example 103] is 0.2 nM.
As for `CC(C)c1noc(C2CCN(C(C)C[C@H](NC(=O)C3CCC3)c3ccccc3)CC2)n1` (stereo partly drawn) [Example 105, N-{(1S)-3-[4-(3-isoPropyl-1,2,4-oxadiazol-5-yl)piperidin-1-yl]-1-phenylbutyl}cyclobutanecarboxamide], the half-maximal inhibitory concentration (IC50) turned out to be 94.6 nM.
Turning to `CC(C)c1nccn1C1CCN(C(C)C[C@H](NC(=O)C2CCC(F)(F)CC2)c2ccccc2)CC1` (stereo partly drawn) [Example 111, 4,4-Difluoro-N-{(1S)-3-[4-(2-isopropyl-1H-imidazol-1-yl)piperidin-1-yl]-1-phenylbutyl}cyclohexanecarboxamide], the half-maximal inhibitory concentration (IC50) came out at 0.2 nM.
Still for that read-out and setting: the figure for `Cc1nccn1C1CCN(C(C)C[C@H](NC(=O)C2CCC(F)(F)CC2)c2ccccc2)CC1` (stereo partly drawn) [Example 112, 4,4-Difluoro-N-{(1S)-3-[4-(2-methyl-1H-imidazol-1-yl)piperidin-1-yl]-1-phenylbutyl}cyclohexanecarboxamide] is 1 nM.

Staying with this assay, now noted: IC50 (nM), HeLa P4 / CHO-Tat10 cells.
The compound `CCCC(=O)N[C@@H](CC(C)N1CCC(n2c(C)nc3c2CN(C(C)=O)CC3)CC1)c1ccccc1` (stereo partly drawn) [Example 56, N-{(1S)-3-[4-(5-acetyl-2-methyl-4,5,6,7-tetrahydro-3H-imidazo[4,5-c]pyridin-3-yl)piperidin-1-yl]-1-phenylbutyl}butanamide] returned a concentration for half-maximal inhibition (IC50) of 1.2 nM.
The same measure, in the same setting: for `CC(=O)N1CCc2nc(C)n(C3CCN(C(C)C[C@H](NC(=O)C(C)C)c4cccc(F)c4)CC3)c2C1` (stereo partly drawn) [Example 58, N-[(1S)-3-[4-(5-acetyl-2-methyl-4,5,6,7-tetrahydro-3H-imidazo[4,5-c]pyridin-3-yl)piperidin-1-yl]-1-(3-fluorophenyl)butyl]-2-methylpropanamide] the value was 0.5 nM; for `CCC(=O)N[C@@H](CC(C)N1CCC(n2c(C)nc3c2CN(C(C)=O)CC3)CC1)c1cccc(F)c1` (stereo partly drawn) [Example 62, N-[(1S)-3-[4-(5-acetyl-2-methyl-4,5,6,7-tetrahydro-3H-imidazo[4,5-c]pyridin-3-yl)piperidin-1-yl]-1-(3-fluorophenyl)butyl]propanamide], 1 nM.
Still for that read-out and setting: the figure for `CCC(=O)N[C@@H](CC(C)N1CCC(n2c(C)nc3c2CCN(C(=O)OC)C3)CC1)c1ccccc1` (stereo partly drawn) [Example 92, methyl 2-methyl-1-{1-[(3S)-1-methyl-3-phenyl-3-(propionylamino)propyl]piperidin-4-yl}-1,4,6,7-tetrahydro-5H-imidazo[4,5-c]pyridine-5-carboxylate] is 0.4 nM.
Same read-out and setting: the figure for `CC(=O)N1CCc2c(nc(C)n2C2CCN(C(C)C[C@H](NC(=O)C(C)C)c3cccc(F)c3)CC2)C1` (stereo partly drawn) [Example 94, N-[(1S)-3-[4-(5-acetyl-2-methyl-4,5,6,7-tetrahydro-1H-imidazo[4,5-c]pyridin-1-yl)piperidin-1-yl]-1-(3-fluorophenyl)butyl]-2-methylpropanamide] is 0.2 nM.
The compound `CCC(=O)N[C@@H](CC(C)N1CCC(n2c(C)nc3c2CCN(C(C)=O)C3)CC1)c1cccc(F)c1` (stereo partly drawn) [Example 104, N-[(1S)-3-[4-(5-acetyl-2-methyl-4,5,6,7-tetrahydro-1H-imidazo[4,5-c]pyridin-1-yl)piperidin-1-yl]-1-(3-fluorophenyl)butyl]propanamide] showed an IC50 of 0.8 nM.
